Holding throughout (assay type): in vivo, Sprague-Dawley infant rats
For one assay, the system named is CINC-1. Put plainly: CINC-1 peptide production by ELISA in rat pup tissues. The source says: This example describes the materials and methods necessary to show the effect of LGG on formula-fed neonatal rat pups. In two separate experiments, ten Sprague-Dawley (Taconic, Germantown, N.Y.) infant rats were randomly assigned to two gastrostomy feeding groups with five rats per group. Gastrostomy feeding, using the rat infant “pup-in-the-cup” model, began on day 7 of life of the rat pups. The gastrostomy feeding tubes were constructed from 14-cm sections of polyethylene tubing that were inserted into the stomach of the pups. This is a commonly used model in studies of developmental nutrition when it is important to manipulate nutritional composition in the absence of maternal feedings. The gastrostomy placement was done under isoflurane anesthesia. Timer-controlled syringe pumps were connected to the feeding tubes and were set to feed the rats for the first 20 minutes of every hour at a weight-dependent flow rate. Five mother-reared rats of the same age were used as reference controls.
During a 2-day acclimation period, the gastrostomy-fed rat pups were fed with rat milk substitute (RMS). The protein component of the RMS was between 30 and 40 g/kg/day, which is similar to that of mother's milk and is required for normal growth. One of the RMS fed groups was also given a supplement of 1×10^8 cfu/L/kg/day LGG. The other group was fed RMS alone, without LGG supplementation. All of the gastrostomy-fed groups received the same quantity of fat and carbohydrates.
Lipopolysaccharide (LPS) from Escherichia coli 0127:B8 (LPS; Sigma, St. Louis, Mo.) was dissolved in water by vortexing at a concentration of 2 mg/ml. The gastrostomy-fed rats were given between 0.25 and 0.5 mg/kg/day of LPS via the gastrostomy tube starting 2 days after the initiation of artificial feeding. The pups were given LPS supplementation for 6 days. This dose was determined in pilot studies to result in occasional shivering, piloerection, and poor weight gain but was not associated with a significant increase in mortality over a 6-day period.
At the end of the 6-day treatment period, the rat pups were euthanized with an overdose of pentobarbital sodium. The small intestine was removed and separated into three parts: the ileum, jejunum, and duodenum, stored at −80° C. for enzyme assays and ELISA, or fixed in 10% neutral buffered formalin for intestinal morphology. Lung, liver and plasma were stored at −80° C. for enzyme assays and ELISA.
This example illustrates the effect of LGG on CINC-1. Small intestine and plasma CINC-1 levels were determined by TiterZyme Enzyme Immunometric Assay kits for rat growth-related oncogene/CINC-1 (Assay Designs, Ann Arbor, Mich.). Absorbance was determined at 450 nm, and concentration was calculated using the equation derived from a linear standard curve.
To further investigate the effects of the diets on CINC-1 peptide, CINC-1 production was evaluated by ELISA in the small intestine, liver, lung and plasma. In an initial experiment, LPS administration to rat pups caused an approximate 4-fold elevation in CINC-1 over non-LPS treated pups fed by gastrostomy (data not shown). […] In the liver and plasma, LGG supplementation reduced CINC-1 levels to a level which was very similar to that of mother's milk-fed rat pups.
For orientation: An ELISA detects its analyte on a solid surface through an enzyme-linked reagent.

For the next assay, the system named is ileum intestinal mucosa. Put plainly: Intestinal morphology of ileum (H&E stain) in LPS-treated rat pups. An excerpt:
(§1) This example describes the materials and methods necessary to show the effect of LGG on formula-fed neonatal rat pups. In two separate experiments, ten Sprague-Dawley (Taconic, Germantown, N.Y.) infant rats were randomly assigned to two gastrostomy feeding groups with five rats per group. Gastrostomy feeding, using the rat infant “pup-in-the-cup” model, began on day 7 of life of the rat pups. The gastrostomy feeding tubes were constructed from 14-cm sections of polyethylene tubing that were inserted into the stomach of the pups. This is a commonly used model in studies of developmental nutrition when it is important to manipulate nutritional composition in the absence of maternal feedings. The gastrostomy placement was done under isoflurane anesthesia. […]
(§2) During a 2-day acclimation period, the gastrostomy-fed rat pups were fed with rat milk substitute (RMS). […] All of the gastrostomy-fed groups received the same quantity of fat and carbohydrates.
(§3) Lipopolysaccharide (LPS) from Escherichia coli 0127:B8 (LPS; Sigma, St. Louis, Mo.) was dissolved in water by vortexing at a concentration of 2 mg/ml. […] This dose was determined in pilot studies to result in occasional shivering, piloerection, and poor weight gain but was not associated with a significant increase in mortality over a 6-day period. […]

The test system of assay [1] is TNF-α. Put plainly: TNF-α production by ELISA in plasma and lung of rat pups.
From the text: (§4) This example describes the materials and methods necessary to show the effect of LGG on formula-fed neonatal rat pups. In two separate experiments, ten Sprague-Dawley (Taconic, Germantown, N.Y.) infant rats were randomly assigned to two gastrostomy feeding groups with five rats per group. Gastrostomy feeding, using the rat infant “pup-in-the-cup” model, began on day 7 of life of the rat pups. The gastrostomy feeding tubes were constructed from 14-cm sections of polyethylene tubing that were inserted into the stomach of the pups. This is a commonly used model in studies of developmental nutrition when it is important to manipulate nutritional composition in the absence of maternal feedings. […]
as §2, §3
To further investigate the effects of the diets on TNF-α, TNF-α production was evaluated by ELISA in the plasma and lung. […]

For another assay, the system named is IL-10. Put plainly: Multiplex bead cytokine assay, IL-10.
From the text: as §4, §2, §3
(§5) To further investigate the effects of LPS and LGG on cytokines, 14 cytokines/chemokines from lung, liver, plasma and distal small intestine were analyzed. […]

Another assay relates to IL-1β. Nature of the assay: Multiplex bead cytokine assay, IL-1β.
From the text: as §4, §2, §3, §5

Another assay concerns MPO. Nature of the assay: MPO activity in distal small intestine and lung of rat pups.
From the text: as §4, §2, §3
This example illustrates the effect of LGG on MPO levels. […] MPO concentration of the supernatant was measured by the H2O2-dependent oxidation of tetramethylbenzidine. […]

The test system of another assay is IL-6. Put plainly: Multiplex bead cytokine assay, IL-6.
From the text: as §4, §2, §3, §5

The test system of assay [2] is cytokine/chemokine levels. Put plainly: Multiplex bead cytokine assay, liver cytokine/chemokine levels.
From the text: as §4, §2, §3, §5

A short description of assay [3]: Growth (body weight) of gastrostomy-fed, LPS-treated rat pups. The conditions noted are these: LGG 1×10^8 cfu/L/kg/day.
From the text: as §1, §2, §3

The subject of the next assay is GRO/KC (rat CINC-1). Put plainly: Multiplex bead cytokine assay, GRO/KC.
From the text: as §4, §2, §3, §5

Assay [4] concerns TNF-α. Nature of the assay: Multiplex bead cytokine assay, TNF-α.
From the text: as §4, §2, §3, §5

The test system of another assay is IL-18. Put plainly: Multiplex bead cytokine assay, IL-18.
From the text: as §4, §2, §3, §5

For “Lipopolysaccharide (LPS) from Escherichia coli 0127:B8 [reference compound]”, the “elevation in CINC-1” value in the assay on CINC-1 (initial experiment, over non-LPS treated pups fed by gastrostomy (data not shown)) was “approximately 4 fold”. Also, in the assay with CINC-1 (liver, LPS treated group that did not receive LGG), the “liver CINC-1 concentration, fold as high” value is on record as around 2 fold. The “lung CINC-1 elevation” value with CINC-1 (lung, LPS treatment compared to mother-fed controls) is recorded as “approximately 4 fold”. Besides, in the assay with CINC-1 (plasma, LPS treated group that did not receive LGG), the “plasma CINC-1 concentration, fold as high” value is listed as around 2 fold.
With Lactobacillus rhamnosus GG [LGG], the “ileum histological features (metaplasia, lymphoplasmacytic infiltrate, thinning of muscularis mucosa, regenerative crypt changes)” value in the assay on ileum intestinal mucosa (LPS plus LGG group vs LPS group) is listed as “attenuated”. The “physical damage in the intestinal mucosa” value in the assay with ileum intestinal mucosa (LPS/LGG group vs mother's milk-fed rat pups) was “reduced to a level similar to that of mother's milk-fed rat pups”. The “LPS induced elevation of TNF-α, lung” value with TNF-α [1] (lung) and in the assay with TNF-α [4] was “significantly blunted” each time. Further, the “LPS induced elevation of TNF-α, plasma” value with TNF-α [1] (plasma) was “significantly blunted”. Also, the “LPS induced elevation of IL-10, lung” value with IL-10 is “significantly blunted”. Also, the “LPS induced elevation of IL-1β, lung” value in the assay on IL-1β (lung) is “significantly blunted”. The “LPS induced elevation of IL-1β, plasma” value with IL-1β (plasma) is given as “significantly blunted”. The “LPS induced elevation of MPO, distal small intestine” value with MPO (distal small intestine) is on record as “significantly blunted”. Also, in the assay with MPO (lung), the “LPS induced elevation of MPO, lung” value is “significantly blunted”. In the assay with CINC-1 (liver, LPS/LGG vs LPS), the “liver CINC-1 concentration” value is “significantly attenuated”. Besides, the “lung CINC-1” value in the assay with CINC-1 (lung, LPS/LGG vs LPS) is listed as “significantly attenuated”. For the same substance, in the assay with CINC-1 (plasma, LPS/LGG vs LPS), the “plasma CINC-1 concentration” value is “significantly attenuated”. Moreover, the “intestinal CINC-1 levels” value with CINC-1 (small intestine, LPS vs LPS/LGG vs mother-fed) is on record as “did not differ significantly among the 3 groups”. The “LPS induced elevation of IL-6, lung” value with IL-6 (lung) is given as “significantly blunted”. In addition, the “LPS induced elevation of IL-6, plasma” value in the assay on IL-6 (plasma) is “significantly blunted”. Further, the “LPS induced increase of cytokine/chemokine levels in the liver” value in assay [2] is “blunted”. Further, the weight gain entry in [3] was “did not improve weight gain”. In addition, the “LPS induced elevation of GRO/KC (rat CINC-1), lung” value in the assay on GRO/KC (rat CINC-1) (lung) is “significantly blunted”. Moreover, the “LPS induced elevation of GRO/KC (rat CINC-1), plasma” value in the assay with GRO/KC (rat CINC-1) (plasma) is reported as “significantly blunted”. In addition, the “LPS induced elevation of IL-18, lung” value in the assay on IL-18 (lung) is given as “significantly blunted”. The “LPS induced elevation of IL-18, plasma” value with IL-18 (plasma) is “significantly blunted”.
